Reference: patent US9663764B2, “Generation of cardiomyocytes from human pluripotent stem cells” (Wisconsin Alumni Research Foundation, priority 2011, dated 2017)

Columns and labels:
Assay type in all cases: cell-based, human
[1] = tested on: 19-9-11 shcat-2 and scramble lines; experiment: Nanog/Isl1 immunostaining of CH-treated 19-9-11 shcat-2 and scramble lines
Method: Immunostaining: Cells were fixed with 4% paraformaldehyde for 15 min at room temperature and then stained with primary and secondary antibodies in PBS plus 0.4% Triton X-100 and 5% non-fat dry milk (Bio-Rad). Nuclei were stained with Gold Anti-fade Reagent with DAPI (Invitrogen). An epifluorescence microscope (Leica DM IRB) with a QImaging® Retiga 4000R camera was used for imaging analysis. To test whether induction of cardiomyocyte differentiation by GSK3 inhibitors requires β-catenin, the inventors treated the shcat-2 and scramble 19-9-11 lines with CH in mTeSR1 medium. While the shcat-2 line maintained an undifferentiated morphology, the scramble line appeared to undergo differentiation (FIG. 2E), similar to non-transduced lines treated with CH (FIGS. 1B and 2B). Induction of differentiation following CH treatment in the scramble control was further indicated by diminished SOX2 and NANOG expression at day 4 (FIG. 3C). […] After 4 days of CH treatment in mTeSR1, the percentage of cells expressing Oct4 decreased to 61% in the scramble line, while 98% of the shcat-2 cells expressed Oct4 (FIG. 3D). […] To better understand early mesoderm induction via GSK3 inhibition, the inventors analyzed expression of the early mesoderm gene T in scramble and shcat-2 19-9-11 lines. As CH concentration increased, the ratio of T expression in scramble to the shcat-2 line increased (FIG. 3E). […]

[2] = tested on: BMP2, BMP4 and NODAL expression in 19-9-11 ishcat-2 cells; experiment: RT-PCR of TGFβ pathway genes during CH-induced differentiation; settings: upon 12 μM CH treatment
Method: RT-PCR and Quantitative RT-PCR: Total RNA was prepared with the RNeasy mini kit (QIAGEN) and treated with DNase (QIAGEN). 1 μg RNA was reverse transcribed into cDNA via Oligo (dT) with Superscript III Reverse Transcriptase (Invitrogen). Real-time quantitative PCR was done in triplicate with iQ SYBR Green SuperMix (Bio-Rad). RT-PCR was done with Gotaq Master Mix (Promega) and then subjected to 2% agarose gel electrophoresis. ACTB was used as an endogenous control. To determine whether canonical Wnt signaling requires TGFβ superfamily signaling to induce cardiogenesis, the inventors quantified cTnT+ cell generation in 19-9-11 […]-2 cells when Activin A and BMP4 signaling antagonists were presented during the first 24 hr of cardiomyocyte induction with 12 μM CH. All samples were treated with dox at 48 hours. […] To further investigate the role of TGFβ superfamily signaling in Wnt pathway-mediated cardiogenesis the inventors assessed Smad1/5 and Smad2 phosphorylation, downstream of BMP4 and Activin A signaling respectively. As expected, substantial Smad1/5 and Smad2 phosphorylation was detected in cells that had been treated with Activin A and BMP4 (FIGS. 9B and 10A).

[3] = tested on: 19-9-11 ishcat-1 and ishcat-2 cells; experiment: Growth factor free cardiac differentiation by CH followed by dox-induced β-catenin shRNA, cTnT flow cytometry
Method: cardiac directed differentiation via small molecules: Cells were dissociated and plated as described in the Activin/BMP4 protocol. When hPS cells maintained on Matrigel® or Synthemax plates achieved confluence, cells were treated with CH in RPMI/B27-insulin for 24 hr (day 0 to day 1). The medium was changed to RPMI/B27-insulin, followed by 2 μg/ml dox treatment at different times between day 1 and day 5 for transgenic cell lines. For genetically unmodified lines, 5 μM IWP2 (Tocris) or IWP4 (Stemgent) was added at day 3 and removed during the day 5 medium change. Cells were maintained in the RPMI/B27 starting from day 7, with the medium changed every 3 days. Flow Cytometry: Cells were dissociated into single cells and then fixed with 1% paraformaldehyde for 20 min at room temperature and stained with primary and secondary antibodies in PBS plus 0.1% Triton X-100 and 0.5% BSA. For the cell proliferation assay, a 17-hour pulse of BrdU was performed to identify dividing cardiomyocytes (Zhang et al., Circ. Res. 104, e30-41 (2009)). Data were collected on a FACSCaliber flow cytometer (Beckton Dickinson) and analyzed using FlowJo. Our results and prior studies (Ren et al., J. Mol. Cell. Cardiol. 51:280-287 (2011); Tran et al., Stem Cells 27:1869-1878 (2009); Wang et al., A.C.S. Chem. Biol. 6, 192-197 (2011); […] et al., Circ Res. 109:360-364 (2011)) indicate that induction of canonical Wnt signaling early and suppression of canonical Wnt signaling at later stages of differentiation enhance yield of cardiomyocytes. The inventors next sought to determine whether modulating Gsk3 and canonical Wnt signaling alone was sufficient to induce cardiogenesis. Undifferentiated hPS cells were cultured in RPMI/B27-insulin medium containing CH. CH was removed by medium exchange at day 1 and dox was added to the medium at various time points between […] and day 4. At day 5, the medium was replaced with RPMI/B27-insulin (FIG. 6A) and cardiomyocyte differentiation was assessed at day 15 by the percentage and yield of cTNT and/or MF20 expressing cells. In the 19-9-11 […]-1 line, 12 μM CH produced the most cTNT+ cells at day 15 without additional dox-induced β-catenin knockdown (FIG. 7A). The inventors then investigated the effect of the timing of dox treatment following addition of 12 μM CH. Addition of dox 36 hours following initiation of differentiation generated 95% cTNT+ cells with yields of approximately 15 cTNT+ cells per input iPSC (FIGS. 6B and 7B). A high yield of cTNT+ cells was also obtained using 19-9-11 […]-2 and three additional hPS cell lines (IMR90C4, 6-9-9, and H9) transduced with inducible β-catenin shRNA […]-1 (FIG. 7C).

[4] = 12 μM CH, dox added 36 hours following initiation of differentiation, day 15

In the case of `Cc1c[nH]c(-c2cnc(NCCNc3ccc(C#N)cn3)nc2-c2ccc(Cl)cc2Cl)n1` [CH], the Nanog/Isl1 immunostaining ([1]; scramble cell line, 15 μM CH in mTeSR1 for 4 days) is reported as “substantial numbers of Nanog−/Isl1+ cells”, the Nanog/Isl1 immunostaining ([1]; shcat-2 cells treated with CH) is reported as “only Nanog+/Isl1− cells” and the NODAL expression [2] is reported as “transient upregulation”. For the same compound, the “BMP2 and BMP4 gene expression” value ([2]; throughout differentiation) was “gradually upregulated”, the purity of cardiomyocytes ([3]; 12 μM CH followed by dox treatment at 36 hours, >50 independent experiments) was over 90% and the “cTNT+ cells” value [3, 4] was 95%. For the same compound, the “yield of cTNT+ cells” value [3, 4] was “approximately 15 cTNT+ cells per input iPSC” and the “CH concentration that produced the most cTNT+ cells at day 15” value ([3]; 19-9-11 ishcat-1 line, without dox-induced β-catenin knockdown) was 12 µM.
